From patent US20200208108A1, “INTERFERON PRIMED PLASMACYTOID DENDRITIC CELLS” (AARHUS UNIVERSITET, priority 2017, published 2020)

Assays:
Assay type in all cases: cell-based, human
HSPC-pDCs [1] = assay: IL-6 in supernatants after TLR7/TLR9 agonist stimulation (ELISA); settings: separate priming; TLR7 and TLR9 agonists
Description: (§1) HSPC-pDCs were cultured in RPMI-1640 medium with 10% heat inactivated FCS, 600 μg/mL L-glutamine, 200 U/mL penicillin and 100 μg/mL streptomycin, but depleted for growth factors used for the cultivation process. As described in individual figure legends, medium was supplemented with IFN-β (PBL Assay Science), IFN-γ (PeproTech) or both cytokines simultaneously (IFN-β+γ). After 24 (day 21+1) or 72 (day 21+3) hours, cells were washed in warm medium, and phenotypically or functionally characterized.
(§2) For functional characterization, cells were seeded in 96-well plates. During stimulation cells were kept in medium with 20 ng/mL IL-3. Twenty hours post stimulation supernatants were harvested and kept at −20° C. until cytokine quantifications. For phenotypic characterization, primed cells were seeded out in 48-well plates and stimulated for 24 hours before phenotypic analysis by flow cytometry.
Protein levels of IL-6 in supernatants were evaluated using ELISA kits (Biolegend) following the manufacturers instructions.

HSPC-pDCs [2] = assay: Phenotypic analysis of pDC-related and maturation surface markers by flow cytometry; settings: priming from day 21, with IL-3
Description: as §1, §2
Immunophenotypical analysis was performed using flow cytometry. Briefly, 2×10^5 cells were spun down and resuspended in PBS with 0.5% BSA and 0.09% NaN3. […] Fluorescence intensities were measured on a LSR Fortessa flow cytometer (Becton Dickinson) with four lasers (405, 488, 561 and 640 nm) and 18 photomultiplier (PMT) detectors. […] Data were analyzed using FlowJo software (version 10, Tree Star, Ashland, Oreg., USA). […]

HSPC-pDCs [3] = assay: Functional type I IFN in supernatants after TLR7/TLR9 agonist stimulation (HEK-Blue IFN-α/β reporter); settings: separate priming; TLR7 and TLR9 agonists
Description: as §1, §2
Bioactive functional type I IFN was quantified in supernatants using the reporter cell line HEK-Blue™ IFN-α/β (Invivogen). The cell line was maintained in DMEM+GlutaMax™-I (Gibco®, Life Technologies), supplemented with 10% heat-inactivated FCS, 100 μg/mL streptomycin and 200 U/mL penicillin, 100 μg/mL normocin (InvivoGen), 30 μg/mL blasticidin (InvivoGen) and 100 μg/mL zeocin (InvivoGen). […] SEAP activity was assessed by measuring optical density (OD) at 620 nm on a microplate reader (ELx808, BioTEK). […]

“IFN-γ: recombinant IFN-γ (PeproTech) used for priming” was tested, and the “secretion of IL-6 by primed HSPC-pDCs” value (HSPC-pDCs [1]) was “predominantly promoted”, the “expression levels of CD303 and CD304 on HSPC-pDCs after priming” value (HSPC-pDCs [2]) was “improved” and the “promotion of type I IFN response in comparison to IFN-β” value (HSPC-pDCs [3]) was “less effective”.
